Holding throughout (assay): NCI-60 cell line screen, 48 h
Experiment [1] concerns NCI-H460 lung.
The test system of experiment [2] is NCI-H226 lung.
In experiment [3] the test system is SW-620 colon.
For experiment [4], the system named is HS 578T breast.
Experiment [5] has as its system OVCAR-4 ovarian.
In experiment [6] the test system is SF-295 CNS.
Experiment [7] deals with UACC-62 melanoma.
Experiment [8] has as its system CCRF-CEM leukemia.
The test system of experiment [9] is COLO 205 colon.
Experiment [10] relates to A549 NSCLC.
In experiment [11] the test system is MCF7 breast.
The test system of experiment [12] is LOX IMVI melanoma.
The test system of experiment [13] is SN12C renal.
For experiment [14], the system named is HCT-116 colon.
Experiment [15] deals with U251 CNS.
Experiment [16] has as its system HL-60(TB) leukemia.
Experiment [17] deals with SR leukemia.
Experiment [18] concerns MDA-MB-435.
The subject of experiment [19] is SK-OV-3 ovarian.
For experiment [20], the system named is SK-MEL-28 melanoma.
Experiment [21] concerns SF-539 CNS.
Experiment [22] relates to HCT-15 colon.
Experiment [23] deals with NCI/ADR-RES ovarian.
Experiment [24] concerns SK-MEL-5 melanoma.
The test system of experiment [25] is UO-31 renal.
For experiment [26], the system named is A498 renal.
Experiment [27] relates to KM12 colon.
In experiment [28] the test system is HT29 colon.
Experiment [29] relates to HCC-2998 colon.
Experiment [30] has as its system NCI-H23 lung.
In experiment [31] the test system is ACHN renal.
In experiment [32] the test system is EKVX NSCLC.
Experiment [33] deals with HOP-92 NSCLC.
For experiment [34], the system named is MALME-3M melanoma.
Experiment [35] deals with SF-268 CNS.
Experiment [36] concerns 786-0 renal.
The test system of experiment [37] is HOP-62 NSCLC.
The subject of experiment [38] is RXF 393 renal.
In experiment [39] the test system is TK-10 renal.
Experiment [40] deals with MDA-MB-231 breast.
Experiment [41] deals with SNB-19 CNS.
In experiment [42] the test system is M14 melanoma.
The subject of experiment [43] is OVCAR-8 ovarian.
The subject of experiment [44] is IGROV1 ovarian.
Experiment [45] has as its system T-47D breast.
For experiment [46], the system named is UACC-257 melanoma.
In experiment [47] the test system is SNB-75 CNS.
Experiment [48] deals with DU-145 prostate.
The test system of experiment [49] is SK-MEL-2 melanoma.
The subject of experiment [50] is RPMI-8226 leukemia.

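Values below derive from 48-hour exposures of cells grown in 96-well plates, with endpoints linearly interpolated between the two concentrations bracketing the appropriate inhibition level. Abbreviation: GI50, concentration required for 50% inhibition of growth. TGI denotes the concentration required for complete inhibition of growth.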

`C[C@H]1[C@H](C)CC[C@]2(C(=O)OCCCC[P+](c3ccccc3)(c3ccccc3)c3ccccc3)CC[C@]3(C)C(=CC[C@@H]4[C@@]5(C)CC[C@H](OC(=O)C(Cl)Cl)C(C)(C)[C@@H]5CC[C@]43C)[C@H]12`: the GI50 in [1] is 0.283 µM; in experiment [2], 0.354 µM; in [3] it was 0.349 µM. Also, the results for the TGI in [1], in [2] and in experiment [3] were 0.975 µM, 1.82 µM and 1.29 µM, respectively.
Regarding `COc1cc(C2NCCC(c3ccccc3)(c3ccccc3)N2)cc(OC)c1OC` (stereo not drawn), the TGI in experiment [4] was 79.5 µM; in [5], > 100 µM; in experiment [6] it was 35.8 µM; in experiment [7] it was > 100 µM; in experiment [8], > 100 µM; in experiment [9] it was 42.4 µM. Further, the TGI in experiment [10] was > 100 µM; in experiment [11] it was 85.8 µM; in [12], 47.7 µM; in experiment [13], > 100 µM; in experiment [14], > 100 µM; in experiment [15], > 100 µM. Further, the TGI in [16] is 90.2 µM; in [17], > 100 µM; in [18], > 100 µM; in [19] it was > 100 µM; in experiment [20], 35.6 µM; in experiment [1], > 100 µM. In addition, the TGI is 29.7 µM in experiment [21]; > 100 µM in experiment [22]; > 100 µM in experiment [23]; 32.1 µM in experiment [24]; 43.8 µM in experiment [2]; 66.2 µM in experiment [25]. Also, the TGI in experiment [3] is > 100 µM; in experiment [26], 88.6 µM; in experiment [27], > 100 µM; in experiment [28], 79.4 µM; in experiment [29] it was 42.7 µM; in experiment [30] it was > 100 µM. Also, the TGI in [31] is > 100 µM; in experiment [32], > 100 µM; in experiment [33], 27.9 µM; in [34], 34 µM; in experiment [35], > 100 µM; in experiment [36], > 100 µM. Besides, the TGI in experiment [37] was > 100 µM; in experiment [38] it was > 100 µM; in experiment [39], > 100 µM; in [40] it was > 100 µM; in experiment [41], > 100 µM; in experiment [42], 27.2 µM. Further, the TGI in experiment [43] was > 100 µM; in experiment [44], > 100 µM; in experiment [45], > 100 µM; in experiment [46], 33.9 µM; in experiment [47] it was > 100 µM; in experiment [48], > 100 µM.
Consider `[2H]C([2H])([2H])Oc1cc(F)ccc1/C=C/C(=O)/C=C(/C=C/c1ccc(F)cc1OC([2H])([2H])[2H])OB(F)F`, for which the GI50 in experiment [4] was 5.67 µM; in [16] it was 1.68 µM; in experiment [17] it was 2.67 µM; in experiment [49], 2.99 µM; in [37], 3.11 µM; in [41], 3.47 µM. Also, the GI50 in experiment [47] was 2.39 µM. Also, the TGI was > 100 µM in experiment [4]; 6.67 µM in [16]; > 100 µM in [17]; > 100 µM in experiment [49]; > 100 µM in [37]; > 100 µM in experiment [41]. The TGI in experiment [47] is > 100 µM.
Consider `C#C[C@]1(O)CC[C@H]2[C@@H]3CC=C4c5nc(Nc6ncccn6)sc5CC[C@]4(C)[C@H]3CC[C@@]21C`, for which the GI50 in experiment [4] is 1.25 µM; in [50], 0.421 µM; in [32] it was 2.99 µM; in experiment [38] it was 0.451 µM; in experiment [41], 2.77 µM. In addition, the TGI in experiment [4] is 4.14 µM; in [50], 2.11 µM; in [32] it was > 100 µM; in experiment [38], 1.69 µM; in experiment [41] it was > 100 µM.

Source of the values: PubChem BioAssay (NCI).
